The subject of assay [1] is Smn protein produced from the SMN2 gene. Briefly: Smn protein assay in tissues of adult C/C-allele SMA mice. Type of assay: in vivo. Conditions: brain, spinal cord, muscle. As for the experimental part:
This Smn protein assay compares tissues from test compound treated mice with those from DMSO vehicle treated mice to determine the increase in levels of Smn protein produced from the human SMN2 gene.
Protocol. The tissue samples in Safe-Lock tubes are weighed and the volume of RIPA buffer containing the protease inhibitor cocktail is added based on the weight to volume ratios for each type of tissue: Brain (50 mg/mL), Muscle (50 mg/mL) and Spinal Cord (25 mg/mL).
Tissues are homogenized using the TissueLyzer by bead milling. 5 mm stainless steel beads are added to the sample and shaken vigorously for 5 minutes at 30 Hz in the TissueLyzer. […] Fluorescence for each well of the plate at 665 nm and 620 nm is measured on an EnVision multilabel plate reader (Perkin-Elmer). The total protein in the tissue homogenate is measured using the BCA assay according to the manufacturer's protocol.
The normalized fluorescence signal is calculated for each sample, Blank and vehicle control well by dividing the signal at 665 nm by the signal at 620 nm. Normalizing the signal accounts for possible fluorescence quenching due to the matrix effect of the tissue homogenate. […] The ΔF value for each tissue sample well is divided by the total protein quantity (determined using the BCA assay) for that tissue sample. […]

For assay [2], the system named is human SMN1 minigene mRNA (SMN1-A minigene) in HEK293H cells. Briefly: Human SMN1 minigene mRNA end-point semi-quantitative RT-PCR splicing assay in cultured cells. The class given is cell-based. The settings on record: HEK293H cells transfected with SMN1-A minigene, increasing concentrations, 7 hours, end-point RT-PCR (FIG. 17). An excerpt:
The RT-PCR assay is used to visualize and quantify the levels of the human SMN1 minigene full length and Δ7 mRNA in primary cells and cell lines expressing the human SMN1 minigene construct treated with a test compound.
Using the procedure for the preparation of the SMN2 minigene construct described in Biological Example 1, the SMN1 version of the minigene is generated by replacing the sixth nucleotide of exon 7 (a thymine residue) of the SMN2-A minigene construct to cytosine using site-directed mutagenesis. Thus, similar to the SMN2-A minigene construct, the SMN1 minigene construct has a single adenine residue inserted after nucleic residue 48 of exon 7. The SMN1 minigene construct is referred to as SMN1-A.
Protocol. HEK293H cells (10,000 cells/well/199 μL) were transfected, using FuGENE-6 reagent, in a 96-well plate with 15 ng of the SMN1-A minigene reporter plasmid per well. Cells were incubated for 24 hours following transfection. Test compounds were serially diluted 3.16-fold in 100% DMSO to generate a 7-point concentration curve. A solution of test compound (1 μL, 200× in DMSO) was added to each test well. 1 μL DMSO was added to each control well. The plate was incubated for 7 hours in a cell culture incubator (37° C., 5% CO2, 100% relative humidity). The cells were then lysed in Cells-To-Ct lysis buffer and the lysates were stored at −80° C.
Two SMN spliced mRNA are generated from the SMN1 minigene. The term “SMN1 minigene FL” refers to the first spliced product containing exon 7, corresponding to full length SMN1 mRNA. The term “SMN1 minigene Δ7” refers to the second product lacking exon 7.
SMN minigene FL and Δ7 mRNA are amplified using the primers in Table 11. Primer SMN Forward C (SEQ ID NO. 11) hybridizes to a nucleotide sequence in exon 6 (nucleotide 43 to nucleotide 63), primer SMN Reverse A (SEQ ID NO. 2) hybridizes to a nucleotide sequence in the coding sequence of Firefly luciferase. The combination of these two oligonucleotides detects only SMN1 or SMN2 minigenes (RT-PCR) and will not detect endogenous SMN1 or SMN2 genes. Since the HEK293H cells used in Example 16 were transfected with only the human SMN1 minigene, RT-PCR can visualize and quantify only SMN1 minigene full-length and SMN1 minigene Δ7 mRNA.
To synthesize cDNA, 5 μL of lysate, 4 μL of 5× iScript reaction mix, 1 μL of reverse transcriptase, and 10 μL of water are combined and incubated 5 min at 25° C. followed by 30 min at 42° C., followed by 5 min at 85° C. The cDNA solution is stored at −20° C.
To perform endpoint PCR, 5 μL of cDNA, 0.2 μL of 100 μM forward primer, 0.2 μL of 100 μM reverse primer, and 22.5 μL of polymerase super mix are combined in a 96 well semiskirted PCR plate. PCR is carried out at the following temperatures for the indicated time: Step 1: 94° C. (2 min), Step 2: 94° C. […]

These results are taken from patent US11753407B2, “Compounds for treating spinal muscular atrophy” (PTC Therapeutics, Inc., priority 2012, dated 2023).

In the case of `COc1ccc(-c2cc(=O)n3cc(N4CCNCC4)ccc3n2)cc1OC` [Cpd 6, 2-(3,4-dimethoxyphenyl)-7-(piperazin-1-yl)-4H-pyrido[1,2-a]pyrimidin-4-one], the “total protein-normalized Smn level” value in assay [1] (100 mg/kg BID for 10 days, relative to vehicle group (FIG. 11a)) was “increased in brain, spinal cord, and muscle tissues”. Further, in assay [2], the “SMN1 minigene FL mRNA” value is reported as “progressively more SMN1 minigene FL mRNA” and the “SMN1 minigene Δ7 mRNA” value is recorded as “less SMN1 minigene Δ7 mRNA”.
`Cc1cn2nc(-c3cc(=O)n4cc(N5CCN(C)CC5)ccc4n3)cc2c(C)n1` [Cpd 170, 2-(4,6-dimethylpyrazolo[1,5-a]pyrazin-2-yl)-7-(4-methylpiperazin-1-yl)-4H-pyrido[1,2-a]pyrimidin-4-one]: the “total protein-normalized Smn level” value in assay [1] (10 mg/kg BID for 10 days, relative to vehicle group (FIG. 11b)) was “increased in brain, spinal cord, and muscle tissues”. For the same compound, in assay [2], the “SMN1 minigene FL mRNA” value is “progressively more SMN1 minigene FL mRNA” and the “SMN1 minigene Δ7 mRNA” value is “less SMN1 minigene Δ7 mRNA”.
